Measured values as given in the NIST ThermoML archive (doi:10.1021/je900482x).

Assay: isobaric coefficient of expansion
Conditions: Liquid, Microcalorimeter

CCCCCC[n+]1ccn(C)c1.O=S(=O)([N-]S(=O)(=O)C(F)(F)F)C(F)(F)F
isobaric coefficient of expansion
Conditions | 5000 kPa | 10000 kPa | 15000 kPa | 20000 kPa | 25000 kPa | 30000 kPa | 35000 kPa | 40000 kPa | 45000 kPa | 50000 kPa
278.15 K | 0.000674 1/K | 0.000662 1/K | 0.000654 1/K | 0.000641 1/K | 0.000635 1/K | 0.000628 1/K | 0.000619 1/K | 0.000612 1/K | 0.000602 1/K | 0.000596 1/K
288.15 K | 0.000668 1/K | 0.000658 1/K | 0.000647 1/K | 0.000637 1/K | 0.00063 1/K | 0.00062 1/K | 0.000614 1/K | 0.000604 1/K | 0.000597 1/K | 0.000592 1/K
298.15 K | 0.000664 1/K | 0.000654 1/K | 0.000643 1/K | 0.000633 1/K | 0.000626 1/K | 0.000615 1/K | 0.000605 1/K | 0.000596 1/K | 0.00059 1/K | 0.000584 1/K
308.15 K | 0.000659 1/K | 0.000648 1/K | 0.000637 1/K | 0.000628 1/K | 0.000618 1/K | 0.000609 1/K | 0.0006 1/K | 0.000594 1/K | 0.000585 1/K | 0.000577 1/K
318.15 K | 0.000654 1/K | 0.000647 1/K | 0.000637 1/K | 0.000623 1/K | 0.000615 1/K | 0.000606 1/K | 0.000597 1/K | 0.000588 1/K | 0.000578 1/K | 0.000571 1/K
328.15 K | 0.00065 1/K | 0.000639 1/K | 0.000632 1/K | 0.000621 1/K | 0.000609 1/K | 0.000599 1/K | 0.000591 1/K | 0.000582 1/K | 0.000574 1/K | 0.000567 1/K
338.15 K | 0.000649 1/K | 0.000637 1/K | 0.000627 1/K | 0.000616 1/K | 0.000605 1/K | 0.000597 1/K | 0.000588 1/K | 0.00058 1/K | 0.000571 1/K | 0.000567 1/K
348.15 K | 0.000644 1/K | 0.000635 1/K | 0.000623 1/K | 0.00061 1/K | 0.000602 1/K | 0.000592 1/K | 0.000584 1/K | 0.000575 1/K | 0.000567 1/K | 0.000559 1/K

CCCCCCn1cc[n+](C)c1.F[B-](F)(F)F [1-hexyl-3-methylimidazolium tetrafluoroborate]
isobaric coefficient of expansion
Conditions | 5000 kPa | 10000 kPa | 15000 kPa | 20000 kPa | 25000 kPa | 30000 kPa | 35000 kPa | 40000 kPa | 45000 kPa | 50000 kPa
278.15 K | 0.000621 1/K | 0.000613 1/K | 0.000605 1/K | 0.000598 1/K | 0.00059 1/K | 0.000584 1/K | 0.000576 1/K | 0.000572 1/K | 0.000562 1/K | 0.000558 1/K
288.15 K | 0.000616 1/K | 0.000606 1/K | 0.0006 1/K | 0.000593 1/K | 0.000586 1/K | 0.000579 1/K | 0.000572 1/K | 0.000565 1/K | 0.000558 1/K | 0.000555 1/K
298.15 K | 0.00061 1/K | 0.000603 1/K | 0.000595 1/K | 0.000586 1/K | 0.00058 1/K | 0.000573 1/K | 0.000564 1/K | 0.000558 1/K | 0.000552 1/K | 0.000547 1/K
308.15 K | 0.000605 1/K | 0.000596 1/K | 0.000589 1/K | 0.000579 1/K | 0.000572 1/K | 0.000565 1/K | 0.00056 1/K | 0.000553 1/K | 0.000545 1/K | 0.000541 1/K
318.15 K | 0.000599 1/K | 0.000594 1/K | 0.000585 1/K | 0.000573 1/K | 0.000566 1/K | 0.00056 1/K | 0.000554 1/K | 0.000545 1/K | 0.000537 1/K | 0.000532 1/K
328.15 K | 0.000594 1/K | 0.000587 1/K | 0.00058 1/K | 0.000572 1/K | 0.000562 1/K | 0.000555 1/K | 0.000549 1/K | 0.00054 1/K | 0.000536 1/K | 0.000531 1/K
338.15 K | 0.000591 1/K | 0.000584 1/K | 0.000575 1/K | 0.000567 1/K | 0.000558 1/K | 0.000553 1/K | 0.000544 1/K | 0.000538 1/K | 0.000532 1/K | 0.000528 1/K
348.15 K | 0.000588 1/K | 0.000582 1/K | 0.000572 1/K | 0.000563 1/K | 0.000555 1/K | 0.000548 1/K | 0.000543 1/K | 0.000535 1/K | 0.000529 1/K | 0.000522 1/K

CCn1cc[n+](C)c1.O=S(=O)([N-]S(=O)(=O)C(F)(F)F)C(F)(F)F
isobaric coefficient of expansion
Conditions | 5000 kPa | 10000 kPa | 15000 kPa | 20000 kPa | 25000 kPa | 30000 kPa | 35000 kPa | 40000 kPa | 45000 kPa | 50000 kPa
278.15 K | 0.00067 1/K | 0.000659 1/K | 0.000651 1/K | 0.000645 1/K | 0.000634 1/K | 0.000628 1/K | 0.000623 1/K | 0.000612 1/K | 0.000606 1/K | 0.0006 1/K
288.15 K | 0.000664 1/K | 0.000653 1/K | 0.000646 1/K | 0.00064 1/K | 0.000631 1/K | 0.000623 1/K | 0.000616 1/K | 0.000606 1/K | 0.000601 1/K | 0.000597 1/K
298.15 K | 0.000659 1/K | 0.000651 1/K | 0.000641 1/K | 0.000633 1/K | 0.000624 1/K | 0.000617 1/K | 0.000606 1/K | 0.0006 1/K | 0.000595 1/K | 0.000589 1/K
308.15 K | 0.000656 1/K | 0.000644 1/K | 0.000637 1/K | 0.000627 1/K | 0.000618 1/K | 0.000611 1/K | 0.000605 1/K | 0.000597 1/K | 0.000589 1/K | 0.000581 1/K
318.15 K | 0.000649 1/K | 0.000644 1/K | 0.000634 1/K | 0.000623 1/K | 0.000615 1/K | 0.000607 1/K | 0.000599 1/K | 0.00059 1/K | 0.000582 1/K | 0.000576 1/K
328.15 K | 0.000645 1/K | 0.000635 1/K | 0.000628 1/K | 0.00062 1/K | 0.000609 1/K | 0.000601 1/K | 0.000593 1/K | 0.000584 1/K | 0.000576 1/K | 0.00057 1/K
338.15 K | 0.000643 1/K | 0.000633 1/K | 0.000624 1/K | 0.000614 1/K | 0.000604 1/K | 0.000598 1/K | 0.000588 1/K | 0.000582 1/K | 0.000574 1/K | 0.000569 1/K
348.15 K | 0.00064 1/K | 0.000629 1/K | 0.00062 1/K | 0.000612 1/K | 0.000602 1/K | 0.000595 1/K | 0.000588 1/K | 0.000579 1/K | 0.000572 1/K | 0.000565 1/K

CCn1cc[n+](C)c1.F[B-](F)(F)F [1-ethyl-3-methylimidazolium tetrafluoroborate]
isobaric coefficient of expansion
Conditions | 5000 kPa | 10000 kPa | 15000 kPa | 20000 kPa | 25000 kPa | 30000 kPa | 35000 kPa | 40000 kPa | 45000 kPa | 50000 kPa
278.15 K | 0.000613 1/K | 0.000605 1/K | 0.000596 1/K | 0.000591 1/K | 0.000585 1/K | 0.00058 1/K | 0.000574 1/K | 0.000567 1/K | 0.00056 1/K | 0.000555 1/K
288.15 K | 0.000614 1/K | 0.000602 1/K | 0.000591 1/K | 0.000587 1/K | 0.000581 1/K | 0.000574 1/K | 0.000569 1/K | 0.000561 1/K | 0.000556 1/K | 0.000554 1/K
298.15 K | 0.000601 1/K | 0.000596 1/K | 0.000587 1/K | 0.00058 1/K | 0.000575 1/K | 0.000568 1/K | 0.000561 1/K | 0.000554 1/K | 0.000549 1/K | 0.000545 1/K
308.15 K | 0.000597 1/K | 0.000589 1/K | 0.000581 1/K | 0.000573 1/K | 0.000566 1/K | 0.000561 1/K | 0.000554 1/K | 0.00055 1/K | 0.000542 1/K | 0.000537 1/K
318.15 K | 0.000589 1/K | 0.000585 1/K | 0.000576 1/K | 0.000569 1/K | 0.000563 1/K | 0.000556 1/K | 0.00055 1/K | 0.000544 1/K | 0.000537 1/K | 0.000532 1/K
328.15 K | 0.000585 1/K | 0.000578 1/K | 0.000573 1/K | 0.000566 1/K | 0.000557 1/K | 0.00055 1/K | 0.000544 1/K | 0.000537 1/K | 0.000533 1/K | 0.000528 1/K
338.15 K | 0.000582 1/K | 0.000574 1/K | 0.000569 1/K | 0.00056 1/K | 0.000553 1/K | 0.000549 1/K | 0.00054 1/K | 0.000534 1/K | 0.000529 1/K | 0.000525 1/K
348.15 K | 0.000579 1/K | 0.000574 1/K | 0.000566 1/K | 0.000562 1/K | 0.000554 1/K | 0.000546 1/K | 0.00054 1/K | 0.000533 1/K | 0.000527 1/K | 0.000521 1/K
